“Also recorded” adds a separate entry of the source.
Columns and labels:
mouse keratinocytes = experiment: Ca2+ imaging in cultured mouse keratinocytes; format: cell-based; details: inhibitor 10 μM
Procedure: (§1) Basal keratinocytes were separated from the cornified sheets by filtration through a […] cell strainer. Keratinocytes were plated on collagen I-coated dishes or glass coverslips and grown in EME media (Gibco, Gaithersburg, MD) containing 8% chelex (Bio-rad, Hercules, CA)-treated FBS with the final Ca^2+ adjusted to 0.05 mM, bovine pituitary extract (50 μg/mL), epidermal growth factor (5 ng/mL), and lx antibiotics/antimycotics (Gibco, Gaithersburg, MD) in a humidified incubator with 5% CO2 at 37° C. for 5-7 days until use. To knockdown Trpv4 in isolated keratinocytes from newborn keratinocyte-Trpv4 cKO mice, cells were treated with 4-OH tamoxifen at 500 nM for 72 h.
In vitro and ex vivo Ca^2+ imaging. […] Ca^2+ imaging of cultured cells in response to chemicals was conducted after loading with 5 μM Fura2-AM (Invitrogen, Waltham, MA) for 45 min after a ratiometric Ca^2+-imaging protocol with 340/380-nm blue light for dual excitation. Ratios of emissions were acquired at 0.5 Hz. ΔR/R0 was determined as the fraction of the increase of a given ratio over baseline ratio divided by baseline ratio. […] Control cells received vehicles.

[1] = system: extracellular release of miR-146a; experiment: Extracellular release of miRs from cultured mouse keratinocytes (RT-qPCR); format: cell-based; details: mouse keratinocytes
Procedure: as §1, with “Primary mouse keratinocytes were cultured following previous protocol (Chen et al. J. Biol. Chem. 2016, 291, 10252-10262). The epidermis from the back skin of newborn WT or keratinocyte-Trpv4 cKO mice was separated from the dermis by floating the skin on 0.25% trypsin (Gibco, Gaithersburg, MD) for 14-18 h at 4° C. Basal” for “Basal”
Measurement of released vesicles and extracellular miR-146a from cultured keratinocytes or sera Medium for the cultured keratinocytes was replaced with serum-free medium 2 h before LPC stimulation. […] Finally, cell-free supernatants were further purified using a Vesicular Isolation kit (Invitrogen, Waltham, MA) according to the manufacturer's instructions, with final product resuspended in ice-cold PBS. Total RNA extraction was then carried out using a Total RNA Isolation kit (Invitrogen, Waltham, MA). Enrichment for small RNAs was carried out by sequential increase in ethanol concentration and passing through glass-fiber filters. RNase free water was used to elute small RNAs in the final elution step. For human PBC sera or sera from ANIT-treated mice, RNA was isolated using Qiagen miRNeasy Plasma/Serum kit. cDNA synthesis from extracted RNAs was performed according to manufacturer's instructions (qSTAR miRNA kit, Origene). For qPCR, the stem-loop oligonucleotides specific for the following miRs are as follows: miR-146a-5p (GAGAACTGAATTCCATGGG, SEQ ID NO: 4), miR-let-7b (GAGGTAGTAGGTTGTGTGG, SEQ ID NO: 5), miR-125b-1 (CCCT GAGACCCTAACTTG, SEQ ID NO: 6), miR-203 (GTGGTTC TTGACAGTTCAAC, SEQ ID NO: 7), and miR-16-5p (AGCAGCAC GTAAATATTGGC, SEQ ID NO: 8). Primers were purchased from Integrated DNA Technologies company (Coralville, IA). qPCR reactions for each sample were run in triplicates, including no-template controls. MiR-16-5p was selected as a control due to the relative constancy of its expression in various cultured cell lines (Schwarzenbach et al. Clin. Chem. 2015, 61, 1333-1342). qPCR for this miR was performed in tandem with target miRs to determine the optimal normalization procedure. To investigate the effects of the specific TRPV4 inhibitors GSK205 or HC067047 and the specific MEK inhibitor U0126 on LPC-induced extracellular release of miR-146a, cells were incubated with the inhibitors for 15 min before stimulation. Control cells received the same volume of vehicle.
Vesicular release from cultured keratinocytes was quantified by detecting acetylcholinesterase (AChE) activity in the extracellular release fluid. (Gupta et al. Am. J. Physiol. Heart Circ. Physiol. 2007, 292, H3052-3056; Malik et al. Methods Mol. Biol. 2016, 1448, 237-248). CBQCA Protein Quantitation Kit (Molecular Probes, Eugene, OR) was used to assess the total protein amounts of each sample. Quantitation was carried out according to kit instructions (Fluorocet, Systems Biosciences, Palo Alto, CA). Briefly, vesicles were lysed to release esterase enzyme whose activity is measured using a florescence dye, excitation at 544 nm and emission at 590 nm. Fluostar Optima (BMG Labtech, Cary, NC) microplate reader was used to measure esterase activity. 500 ng protein equivalent of input was used per well. […]

Row | Compound | effect on LPA 18:1 (10 μM) induced Ca2+ signal (mouse keratinocytes) | effect on LPC (10 μM) induced Ca2+ signal (mouse keratinocytes) | effect of TRPV4 inhibitors on LPC-induced release of miR-146a ([1]; inhibitor 10 μM) | effect of MEK inhibitor on LPC-induced release of miR-146a ([1]; 10 μM)
1 | Cc1c(C(=O)Nc2cccc(C(F)(F)F)c2)cc(-c2ccccc2)n1CCCN1CCOCC1 [HC067047] | remained unchanged | significantly reduced | completely eliminated | 
2 | N#CC(=C(/N)Sc1ccccc1N)/C(C#N)=C(\N)Sc1ccccc1N [U0126] |  |  |  | eliminated; also recorded: abolished
